What was measured:
Assay in all cases: relative viability (nuclei count vs DMSO), 5 days (fraction); higher = more cells survive
Etoposide + Navitoclax = compound: COc1cc([C@@H]2c3cc4c(cc3[C@@H](O[C@@H]3O[C@@H]5CO[C@@H](C)O[C@H]5[C@H](O)[C@H]3O)[C@H]3COC(=O)[C@H]23)OCO4)cc(OC)c1O [Etoposide] + CC1(C)CCC(c2ccc(Cl)cc2)=C(CN2CCN(c3ccc(C(=O)NS(=O)(=O)c4ccc(N[C@H](CCN5CCOCC5)CSc5ccccc5)c(S(=O)(=O)C(F)(F)F)c4)cc3)CC2)C1 [Navitoclax] (partner 0.5 µM)
Procedure, shortened: (§1)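 For relative viability, nuclei counts in treated wells were divided by those in vehicle wells. Lung cancer cell lines had been pin-tool dosed in 1536-well plates the day after seeding and cultured for 5 days, then fixed and stained in one step (final 0.05% Triton X-100, 1% formaldehyde, 1 ug/ml Hoechst) and imaged at 4×. Doses were one drug alone or a fixed anchor-drug dose plus five library-drug doses (not always all listed) in √10 steps, and values are duplicate-plate medians.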

Etoposide + Linsitinib = compound: COc1cc([C@@H]2c3cc4c(cc3[C@@H](O[C@@H]3O[C@@H]5CO[C@@H](C)O[C@H]5[C@H](O)[C@H]3O)[C@H]3COC(=O)[C@H]23)OCO4)cc(OC)c1O [Etoposide] + C[C@]1(O)C[C@@H](c2nc(-c3ccc4ccc(-c5ccccc5)nc4c3)c3c(N)nccn32)C1 [Linsitinib] (partner 1 µM)
Procedure, shortened: as §1

Bleomycin + OSI-027 = compound: CC1=C(N=C(N=C1N)[C@H](CC(=O)N)NC[C@@H](C(=O)N)N)C(=O)N[C@@H]([C@H](C2=CN=CN2)OC3C(C(C(C(O3)CO)O)O)OC4C(C(C(C(O4)CO)O)OC(=O)N)O)C(=O)N[C@H](C)[C@H]([C@H](C)C(=O)N[C@@H]([C@@H](C)O)C(=O)NCCC5=NC(=CS5)C6=NC(=CS6)C(=O)NCCC[S+](C)C)O [Bleomycin] + COc1cccc2cc(-c3nc([C@H]4CC[C@H](C(=O)O)CC4)n4ncnc(N)c34)[nH]c12 [OSI-027] (partner 0.5 µM); conditions: main component drawn
Procedure, shortened: as §1

Bleomycin + Vorinostat = compound: CC1=C(N=C(N=C1N)[C@H](CC(=O)N)NC[C@@H](C(=O)N)N)C(=O)N[C@@H]([C@H](C2=CN=CN2)OC3C(C(C(C(O3)CO)O)O)OC4C(C(C(C(O4)CO)O)OC(=O)N)O)C(=O)N[C@H](C)[C@H]([C@H](C)C(=O)N[C@@H]([C@@H](C)O)C(=O)NCCC5=NC(=CS5)C6=NC(=CS6)C(=O)NCCC[S+](C)C)O [Bleomycin] + O=C(CCCCCCC(=O)Nc1ccccc1)NO [Vorinostat] (partner 1 µM); conditions: main component drawn
Procedure, shortened: as §1

Cell Line	relative viability (Etoposide + Navitoclax; first compound 0.01 µM)	relative viability (Etoposide + Navitoclax; first compound 0.03162 µM)	relative viability (Etoposide + Navitoclax; first compound 0.1 µM)	relative viability (Etoposide + Navitoclax; first compound 0.3162 µM)	relative viability (Etoposide + Navitoclax; first compound 1 µM)	relative viability (Etoposide + Linsitinib; first compound 0.01 µM)	relative viability (Etoposide + Linsitinib; first compound 0.03162 µM)	relative viability (Etoposide + Linsitinib; first compound 0.1 µM)	relative viability (Etoposide + Linsitinib; first compound 0.3162 µM)	relative viability (Etoposide + Linsitinib; first compound 1 µM)	relative viability (Bleomycin + OSI-027; first compound 0.01 µM)	relative viability (Bleomycin + OSI-027; first compound 0.03162 µM)	relative viability (Bleomycin + OSI-027; first compound 0.1 µM)	relative viability (Bleomycin + OSI-027; first compound 0.3162 µM)	relative viability (Bleomycin + OSI-027; first compound 1 µM)	relative viability (Bleomycin + Vorinostat; first compound 0.01 µM)	relative viability (Bleomycin + Vorinostat; first compound 0.03162 µM)	relative viability (Bleomycin + Vorinostat; first compound 0.1 µM)	relative viability (Bleomycin + Vorinostat; first compound 0.3162 µM)	relative viability (Bleomycin + Vorinostat; first compound 1 µM)
HOP-62	1.07	0.995	0.987	0.598	0.236	0.963	1.05	0.657	0.631	0.269	0.383	0.498	0.333	0.184	0.127	0.277	0.277	0.179	0.102	0.0753
LC-2-ad	0.586	0.446	0.405	0.276	0.183	0.809	0.976	0.863	0.624	0.248	0.552	0.711	0.382	0.302	0.221	0.62	0.609	0.466	0.236	0.2
LCLC-97TM1	–	0.62	0.327	0.178	0.141	–	0.193	0.122	0.151	0.1	0.444	0.403	0.177	0.196	0.108	0.179	0.15	0.18	0.106	0.0733
LK-2	0.815	0.945	0.643	0.498	0.267	0.522	0.442	0.295	0.442	0.18	0.192	0.202	0.177	0.167	0.162	0.232	0.281	0.217	0.209	0.195
LOU-NH91	0.695	0.654	0.504	0.464	0.329	0.892	0.943	0.702	0.728	0.538	0.667	0.564	0.555	0.503	0.306	0.718	0.544	0.508	0.387	0.345
LU99A	0.828	0.898	0.45	0.311	0.189	0.495	0.614	0.333	0.264	0.201	0.253	0.289	0.259	0.234	0.161	0.394	0.392	0.353	0.207	0.125
LXF-289	0.977	0.971	0.984	0.605	0.174	0.968	1.06	1	0.703	0.293	0.647	0.781	0.693	0.315	0.169	0.723	0.718	0.614	0.331	0.167
NCI-H23	0.733	0.816	0.502	0.421	0.254	0.504	0.645	0.364	0.409	0.191	0.361	0.401	0.272	0.141	0.145	0.264	0.316	0.219	0.123	0.127
NCI-H322M	1.29	1.37	1.01	0.886	0.574	0.902	0.993	0.727	0.845	0.565	0.399	0.535	0.513	0.464	0.421	0.815	0.888	0.818	0.577	0.647
NCI-H441	0.535	0.633	0.571	0.168	0.189	0.51	0.474	0.292	0.179	0.148	0.404	0.735	0.534	0.383	0.283	0.646	0.546	0.686	0.453	0.312
NCI-H460	0.93	0.796	0.6	0.0627	0.0154	0.684	0.601	0.447	0.0349	0.0212	0.373	0.334	0.165	0.038	0.0308	0.4	0.221	0.158	0.0343	0.0306
NCI-H520	0.985	1	1.08	0.951	0.956	0.927	1.04	1.1	0.895	0.9	0.272	0.299	0.21	0.208	0.198	0.592	0.743	0.589	0.574	0.416
NCI-H596	0.977	0.989	–	0.87	0.642	0.86	1.13	–	0.948	0.884	0.48	0.561	0.512	0.304	0.278	0.479	0.438	0.438	0.22	0.293
NCI-H647	0.936	1.18	0.961	0.261	0.241	1.14	1.15	1.13	0.416	0.164	0.195	0.184	0.184	0.0871	0.0587	0.205	0.132	0.105	0.0704	0.0607
NCI-H727	0.439	0.553	0.369	0.488	0.319	0.239	0.286	0.3	0.337	0.349	0.731	0.685	0.637	–	0.528	1.18	1.17	1.08	0.618	0.93
NCI-H838	1.09	1.14	1.19	0.705	0.338	0.937	0.994	0.902	0.644	0.296	0.347	0.269	0.186	0.173	0.174	0.571	0.41	0.274	0.267	0.265
NCI-H1355	0.881	1.17	0.479	0.684	0.323	0.732	0.945	0.466	0.585	0.334	0.459	0.416	0.427	0.258	0.194	0.599	0.627	0.676	0.325	0.207
NCI-H1395	1.21	1.15	0.893	0.988	0.682	1	1.33	0.836	0.897	0.656	0.533	0.647	0.516	0.367	0.404	0.574	0.656	0.403	0.35	0.359
NCI-H1437	1.11	1.01	1.01	0.524	0.296	0.993	1.07	0.984	0.566	0.262	0.76	0.848	0.748	0.522	0.368	0.712	0.758	0.733	0.458	0.413
NCI-H1651	0.866	0.881	0.808	0.242	0.154	0.885	0.922	0.864	0.331	0.134	0.671	0.524	0.551	0.323	0.186	0.519	0.505	0.392	0.356	0.152
NCI-H1666	0.788	0.875	0.549	0.353	0.263	0.906	0.765	0.523	0.362	0.333	0.678	0.671	0.636	0.515	0.408	0.786	0.926	0.885	0.652	0.613
NCI-H1734	0.761	0.9	0.665	0.598	0.266	0.746	0.932	0.725	0.688	0.509	0.565	0.544	0.465	0.254	0.226	0.612	0.623	0.472	0.231	0.15
NCI-H1755	0.917	1.03	1.07	0.939	0.882	0.985	1.03	0.974	0.951	0.858	0.67	0.727	0.706	0.718	0.427	0.606	0.736	0.714	0.521	0.636
NCI-H1793	0.382	0.564	–	0.387	0.324	0.692	0.989	–	0.716	0.429	0.271	0.311	0.249	0.156	0.138	0.714	0.647	0.525	0.215	0.141
NCI-H1915	0.826	0.814	0.815	0.725	0.621	1.1	1.16	1.06	0.994	0.851	0.434	0.429	0.373	0.21	0.144	0.377	0.383	0.291	0.162	0.116
NCI-H1944	1.11	1	0.63	0.593	0.3	1.45	1.33	0.844	0.733	0.392	0.279	0.278	0.224	0.179	0.151	0.284	0.244	0.265	0.154	0.152
NCI-H1975	1.09	1.33	1.06	0.701	0.468	0.973	1.07	0.902	0.67	0.345	0.566	0.638	0.435	0.153	0.132	0.482	0.514	0.386	0.215	0.162
NCI-H1993	0.921	1.08	0.856	0.758	0.533	0.81	0.692	0.7	0.662	0.537	0.541	0.483	0.513	0.535	0.422	0.669	0.585	0.864	0.303	0.386
NCI-H2009	1.13	1.08	1.21	0.771	0.496	1.09	1.24	1.25	0.839	0.401	0.606	0.609	0.637	0.501	0.41	0.662	0.739	0.854	0.541	0.36

Source: the supplement of paper PMC10307832
